Drawing on patent publication US10639284B2, “Immunomodulator compounds” (CHEMOCENTRYX, INC., priority 2016, dated 2020), this text covers IC50 for 41 molecules.

By IC50 is commonly meant the concentration needed to halve the response being measured.

Chain of human PD-L1 / Human PD-1 (Q9NZQ7 19-239): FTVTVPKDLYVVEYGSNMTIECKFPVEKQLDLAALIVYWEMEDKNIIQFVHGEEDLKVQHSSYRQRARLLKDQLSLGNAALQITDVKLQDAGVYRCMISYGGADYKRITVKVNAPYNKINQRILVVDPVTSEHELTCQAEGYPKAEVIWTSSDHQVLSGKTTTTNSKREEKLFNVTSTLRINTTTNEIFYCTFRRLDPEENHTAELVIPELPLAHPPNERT

The assay concerns the target human PD-L1 / Human PD-1 (Homo sapiens (Human), UniProt Q9NZQ7). Briefly: Enzyme-Linked Immunosorbent Assay (ELISA), PD-1/PD-L1 binding. To be noted: Table 3; plate-coated human PD-L1, biotinylated human PD-1; read-out: ELISA IC50. In short, it runs like this:
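Human PD-L1 coated at 1 μg/mL overnight at 4° C; samples diluted 1:5 and incubated with human PD-1 and biotin (0.3 μg/mL) for 1 h at 37° C. Bound PD-1 detected with streptavidin-HRP and TMB (20 min, 37° C), acid-stopped, absorbance at 450 nm.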
For the molecule `C[C@H](NCc1cc(Cl)c(O[C@H]2CCc3c(-c4ccccc4F)cccc32)cc1OCc1cncc(C#N)c1)C(=O)NCC(=O)O` [Example 3.058], the IC50 fell in the range of 100 to 500 nM.

Take `N#Cc1cncc(COc2cc(O[C@H]3CCc4c(-c5ccccc5F)cccc43)c(Cl)cc2CNCc2c[nH]cn2)c1` [Example 3.059]: the IC50 was less than 100 nM.

In the case of `C[C@H](NC(=O)[C@H](C)NCc1cc(Cl)c(O[C@H]2CCc3c(-c4ccccc4F)cccc32)cc1OCc1cncc(C#N)c1)C(=O)O` [Example 3.060], the IC50 was less than 100 nM. For the molecule `N#Cc1cncc(COc2cc(O[C@H]3CCc4c(-c5ccccc5F)cccc43)c(Cl)cc2CNCC(=O)NCC(=O)O)c1` [Example 3.062], the IC50 was less than 100 nM. Consider `N#Cc1cc(Br)cc(COc2cc(O[C@H]3CCc4c(-c5ccccc5F)cccc43)c(Cl)cc2CN[C@@H](CO)C(=O)O)c1` [Example 3.063], for which the IC50 was less than 100 nM.

With `C[C@@H](O)[C@@H](CC(=O)O)NCc1cc(Cl)c(O[C@@H]2CCc3c(-c4ccccc4F)cccc32)cc1OCc1cncc(C#N)c1` [Example 3.064], the IC50 lay in the range of 500 to 20000 nM.

Regarding `N#Cc1cncc(COc2cc(O[C@H]3CCc4c(-c5ccccc5F)cccc43)c(Cl)cc2CNC2CC(=O)NC(=O)C2)c1` [Example 3.065], the IC50 fell in the range of 500 to 20000 nM. Under `CC(NCc1cc(Cl)c(O[C@H]2CCc3c(-c4ccccc4F)cccc32)cc1OCc1cncc(C#N)c1)c1ccn(C)n1` (some centres unmarked) [Example 3.066] stands 100 to 500 nM. Next, `N#Cc1cncc(COc2cc(O[C@H]3CCc4c(-c5ccccc5F)cccc43)c(Cl)cc2CN[C@H]2CC[C@H](O)CC2)c1` [Example 3.068]: less than 100 nM; `N#Cc1cncc(COc2cc(O[C@@H]3CCc4c(-c5ccccc5F)cccc43)c(Cl)cc2CN[C@H](CO)C(=O)O)c1` [Example 3.069]: less than 100 nM. `N#Cc1cncc(COc2cc(OC3CCc4c(-c5ccccc5F)cccc43)c(F)cc2CN[C@@H](CO)C(=O)O)c1` (some centres unmarked) [Example 3.070]: the IC50 was less than 100 nM. Next, `N#Cc1cncc(COc2cc(O[C@H]3CCc4c(-c5ccccc5F)cccc43)c(Cl)cc2CN[C@@H]2CCCC[C@H]2O)c1` [Example 3.071]: less than 100 nM; `N#Cc1cncc(COc2cc(O[C@H]3CCc4c(-c5ccccc5F)cccc43)c(Cl)cc2CNC2CCOCC2)c1` [Example 3.072]: less than 100 nM. Take `N#Cc1cncc(COc2cc(O[C@H]3CCc4c(-c5ccccc5F)cccc43)c(Cl)cc2CN2C[C@H](O)[C@@H](O)[C@H](O)[C@H]2CO)c1` [Example 3.073]: the IC50 fell in the range of 500 to 20000 nM. Under `CCN(CC)CCCC(C)NCc1cc(Cl)c(O[C@H]2CCc3c(-c4ccccc4F)cccc32)cc1OCc1cncc(C#N)c1` (some centres unmarked) [Example 3.074] stands less than 100 nM; under `Cn1ccnc1CNCc1cc(Cl)c(O[C@H]2CCc3c(-c4ccccc4F)cccc32)cc1OCc1cncc(C#N)c1` [Example 3.075], 100 to 500 nM. Take `CC(NCc1cc(Cl)c(O[C@H]2CCc3c(-c4ccccc4F)cccc32)cc1OCc1cncc(C#N)c1)C(=O)c1ccc(O)c(O)c1` (some centres unmarked) [Example 3.076]: the IC50 was in the range of 100 to 500 nM.

In the case of `N#Cc1cncc(COc2cc(O[C@H]3CCc4c(-c5ccccc5F)cccc43)c(Cl)cc2CNCCN2CCCCC2CO)c1` (some centres unmarked) [Example 3.077], the IC50 lay in the range of 100 to 500 nM. Take `COC(=O)Cc1ccccc1-c1cccc2c1CC[C@@H]2Oc1cc(OCc2cncc(C#N)c2)c(CN[C@@H](CO)C(=O)O)cc1Cl` [Example 3.078]: the IC50 is 500 to 20000 nM. Next, `N#Cc1cncc(COc2cc(O[C@H]3CCc4c(-c5ccccc5O)cccc43)c(Cl)cc2CN[C@@H](CO)C(=O)O)c1` [Example 3.079]: 100 to 500 nM; `CN(C)CCCCCNCc1cc(Cl)c(O[C@H]2CCc3c(-c4ccccc4F)cccc32)cc1OCc1cncc(C#N)c1` [Example 3.080]: less than 100 nM; `N#Cc1cncc(COc2cc(O[C@H]3CCc4c(-c5ccccc5F)cccc43)c(Cl)cc2CNCc2ncc(-c3ccccc3)[nH]2)c1` [Example 3.081]: 500 to 20000 nM. Under `Cc1n[nH]c(C)c1CNCc1cc(Cl)c(O[C@H]2CCc3c(-c4ccccc4F)cccc32)cc1OCc1cncc(C#N)c1` [Example 3.082] stands 100 to 500 nM; under `N#Cc1cncc(COc2cc(O[C@H]3CCc4c(-c5ccccc5F)cccc43)c(Cl)cc2CN[C@H](CNC(=N)N)C(=O)O)c1` [Example 3.083], less than 100 nM; under `N#Cc1cncc(COc2cc(O[C@H]3CCc4c(-c5ccccc5F)cccc43)c(Cl)cc2CNCc2cccnn2)c1` [Example 3.084], less than 100 nM. Under `CCc1cc(CNCc2cc(Cl)c(O[C@H]3CCc4c(-c5ccccc5F)cccc43)cc2OCc2cncc(C#N)c2)on1` [Example 3.085] stands 500 to 20000 nM; under `C[C@H](NCc1cc(Cl)c(O[C@H]2CCc3c(-c4ccccc4F)cccc32)cc1OCc1cncc(C#N)c1)C(=O)N[C@@H](C)P(=O)(O)O` [Example 3.086], less than 100 nM; under `Cc1cc2cc(CNCc3cc(Cl)c(O[C@H]4CCc5c(-c6ccccc6F)cccc54)cc3OCc3cncc(C#N)c3)ccc2[nH]1` [Example 3.087], 500 to 20000 nM. In the case of `N#Cc1cncc(COc2cc(O[C@H]3CCc4c(-c5ccccc5F)cccc43)c(Cl)cc2CNCCCCN(CCO)CCO)c1` [Example 3.088], the IC50 was 100 to 500 nM.

As for `N#Cc1cncc(COc2cc(O[C@H]3CCc4c(-c5ccccc5F)cccc43)c(Cl)cc2CNCCCN2CCN(CCO)CC2)c1` [Example 3.089], the IC50 was 100 to 500 nM. Under `CC(C)c1nccn1CCCNCc1cc(Cl)c(O[C@H]2CCc3c(-c4ccccc4F)cccc32)cc1OCc1cncc(C#N)c1` [Example 3.090] stands 100 to 500 nM. For the molecule `Cn1cnc(CNCc2cc(Cl)c(O[C@H]3CCc4c(-c5ccccc5F)cccc43)cc2OCc2cncc(C#N)c2)c1` [Example 3.091], the IC50 was less than 100 nM. Turning to `N#Cc1cncc(COc2cc(O[C@H]3CCc4c(-c5ccccc5F)cccc43)c(Cl)cc2CNCc2ccc(C(N)=O)cc2)c1` [Example 3.092], the IC50 was in the range of 100 to 500 nM. Under `N#Cc1cncc(COc2cc(O[C@H]3CCc4c(-c5ccccc5F)cccc43)c(Cl)cc2CN[C@H]2CCc3ccc(O)cc3C2)c1` [Example 3.093] stands 100 to 500 nM; under `N#Cc1cncc(COc2cc(O[C@H]3CCc4c(-c5ccccc5F)cccc43)c(Cl)cc2CNC(Cc2cccnc2)C(=O)O)c1` (some centres unmarked) [Example 3.094], less than 100 nM; under `CC(NCc1cc(Cl)c(O[C@H]2CCc3c(-c4ccccc4F)cccc32)cc1OCc1cncc(C#N)c1)C(=O)NC(CO)C(=O)O` (some centres unmarked) [Example 3.095], less than 100 nM. Next, `N#Cc1cncc(COc2cc(O[C@H]3CCc4c(-c5ccccc5F)cccc43)c(Cl)cc2CN[C@@H](CNC(=N)N)C(=O)O)c1` [Example 3.096]: 100 to 500 nM. As for `N#Cc1cncc(COc2cc(O[C@H]3CCc4c(-c5ccccc5F)cccc43)c(Cl)cc2CNc2cncc(CO)c2)c1` [Example 3.097], the 50% inhibitory concentration (IC50) was in the range of 500 to 20000 nM. With `N#Cc1cncc(COc2cc(O[C@H]3CCc4c(-c5ccccc5F)cccc43)c(Cl)cc2CN[C@H](CCCNC(=N)N)C(=O)O)c1` [Example 3.098], the IC50 was in the range of 100 to 500 nM. As for `CC(C)[C@@H](NCc1cc(Cl)c(O[C@H]2CCc3c(-c4ccccc4F)cccc32)cc1OCc1cncc(C#N)c1)C(=O)O` [Example 3.099], the IC50 fell in the range of 100 to 500 nM. Under `O=C(O)[C@H](CO)NCc1cc(Cl)c(O[C@H]2CCc3c(-c4ccccc4F)cccc32)cc1OCc1cncc(Br)c1` [Example 3.100] stands less than 100 nM.
